For experiment [1], the target named is T1, mGPR40 (Mus musculus, UniProt Q76JU9).
T1 construct: host or cells: U2OS
Put plainly: Mouse beta-arrestin agonist assay with 1% FBS (PathHunter, U2OS mFFAR1). The class given is cell-based. From the text:
(§1) Human embryonic kidney (hEK293)-hFFAR1 cells are purchased from DiscoveRx. Human osteosarcoma (U2OS) cells expressing mFFAR1 are developed by DiscoveRX. These cells co-express the Prolink (PK)-tagged GPR40 and the Enzyme Acceptor (EA)-tagged beta-arrestin fusion proteins. If activation of the GPR40 stimulates beta-arrestin recruitment, it would force complementation of the beta galactosidase (B-gal) enzyme fragments, forming a B-gal enzyme that generates a chemiluminescent signal using the DiscoveRx PathHunter detection kit. Cells are incubated overnight at 5,000 cells/well in 384 well plates in culture media containing 1% FBS (fetal bovine serum). Serial diluted compounds in DMSO (2× dilutions to generate 20 concentrations) are step down diluted in culture media containing 1% FBS (fetal bovine serum) and added to cells with a final top concentration starting of 100 μM. After addition of compounds, cells are incubated for 90 min at 37° C. in 5% CO2 incubator, and DiscoveRX kit detection reagents are added. Measurement of the chemiluminescent signal is ascertained with the Envision reader, after a 1-hour incubation at room temperature. Data are fit to a 4 parameter-fit logistics to determine EC50 values; % activity is measured versus maximum response to TAK875 at 1 μM.

Experiment [2] concerns Male Balb/c mice. In words: Intraperitoneal glucose tolerance test (IPGTT). The class given is in vivo, mouse. The method, then:
To examine the ability of Examples 1 to 20 to activate GPR40 in-vivo resulting in desired glucose lowering efficacy, i.e. reduction in plasma glucose levels, an intraperitoneal glucose tolerance test (ipGTT) study is completed, and the data is shown for the compound tested below.
Male Balb/c (Albino mice) mice (8-9 weeks of age) are single housed, and fed with normal rodent chow diet and water ad libitum. Animals are weighed; randomized by body weight; and their daily body weights are recorded. Animals are dosed daily using a formulation carrying methylcellulose and tween-80. On the night before the study, animals are fasted. In the morning, animals are dosed orally with compound or vehicle alone 60 minutes prior to the glucose tolerance test (glucose 2 g/kg, i.p.). Blood glucose levels are determined from tail bleeds taken at 0, 3, 7, 15, 30, and 60 min after glucose challenge. […] Percent lowering in glucose is calculated from the AUC data of the compound with respect to the AUC of vehicle group. The test compound is orally administered at 0.3, 1.0, 3.0, 10, 30, or 100 mg/kg, and a positive control (3-[4-(2-methyl-benzyloxy)-phenyl]-hex-4-ynoic acid, see WO2005086661 (TAK875).) is administered at 10 mg/kg. […] Glucose levels are lowered at the 30, and 60 minute time points for the positive control.

For experiment [3], the target named is T2, hGPR40 (Homo sapiens, UniProt O14842). Put plainly: Calcium Flux Primary Assay (FLIPR, Calcium 4 Dye). The experiment is classed as cell-based. Particulars: HEK293 cells over expressing human GPR40; Mean±SEM. More on the design: expressed in transfected cells; host or cells: HEK293. As for the experimental part:
HEK293 cells over expressing the human GPR40 cDNA maintained in Dulbecco's modified Eagle's medium with F12 medium in 3:1 ratio supplemented with 10% FBS and 800 μg/ml geneticin at 37° C. and 5% CO2 are employed for the study. Agonist assays are performed using a Calcium 4 Dye assay kit (Molecular Devices) in the presence or absence of 0.1% fatty acid free BSA in the assay buffer (1×HBSS (Hank's Balanced Salt Solution) & 20 mM HEPES (4-(2-hydroxyethyl)-1-piperazineethanesulfonic acid). Receptor activation is measured as an increase in intracellular calcium using the Fluorometric Imaging Plate Reader (FLIPR). Maximum change in fluorescence over the base line is used to determine the agonist response. The EC50 value of the compound is calculated using Excel Fit software (version 4; IDBS) by plotting concentration vs relative fluorescence units (RFUs).
On the technique in general: A change in cytosolic calcium serves as a functional read-out for many receptors and channels.
Target sequence in this assay (O14842 whole entry): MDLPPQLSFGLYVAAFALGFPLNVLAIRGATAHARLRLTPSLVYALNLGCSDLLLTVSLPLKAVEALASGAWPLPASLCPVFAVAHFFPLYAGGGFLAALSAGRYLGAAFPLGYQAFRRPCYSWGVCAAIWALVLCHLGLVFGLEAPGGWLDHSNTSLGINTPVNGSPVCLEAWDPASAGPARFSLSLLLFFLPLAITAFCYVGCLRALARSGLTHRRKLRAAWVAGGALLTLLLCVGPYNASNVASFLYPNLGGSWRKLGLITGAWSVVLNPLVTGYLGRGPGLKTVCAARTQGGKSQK

Experiment [4] has as its target T2, hGPR40. Put plainly: Human beta-arrestin agonist assay with 1% FBS (PathHunter, hEK293-hFFAR1). The class given is cell-based. More on the design: host or cells: HEK293 (hEK293-hFFAR1 PathHunter cells).
Text: as §1
Target sequence in this assay (O14842 whole entry): as above
Target sequence in this assay (P32121 whole entry partner): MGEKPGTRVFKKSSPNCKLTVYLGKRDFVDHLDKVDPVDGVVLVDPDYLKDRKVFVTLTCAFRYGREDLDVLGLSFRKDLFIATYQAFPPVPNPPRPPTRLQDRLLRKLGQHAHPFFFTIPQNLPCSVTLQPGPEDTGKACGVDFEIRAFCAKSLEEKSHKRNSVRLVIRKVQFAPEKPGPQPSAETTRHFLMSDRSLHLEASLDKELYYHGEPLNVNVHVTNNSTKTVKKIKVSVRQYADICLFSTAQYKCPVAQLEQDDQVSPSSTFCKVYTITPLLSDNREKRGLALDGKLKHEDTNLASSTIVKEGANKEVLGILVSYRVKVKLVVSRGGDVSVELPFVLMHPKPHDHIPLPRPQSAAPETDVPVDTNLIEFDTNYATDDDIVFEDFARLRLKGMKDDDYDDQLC

Where [5] appears, read: versus maximum response to TAK875 at 1 μM.

Data on one compound can be found in patent US9617263B2, “Phenyl-triazolo-pyridine compounds” (Eli Lilly and Company, priority 2014, dated 2017).

The term EC50 denotes the midpoint of the concentration-response curve. One may read the ED50 as the dose that gives a 50% effect, or the effect in half of the subjects.

T1 sequence (Q76JU9 whole entry): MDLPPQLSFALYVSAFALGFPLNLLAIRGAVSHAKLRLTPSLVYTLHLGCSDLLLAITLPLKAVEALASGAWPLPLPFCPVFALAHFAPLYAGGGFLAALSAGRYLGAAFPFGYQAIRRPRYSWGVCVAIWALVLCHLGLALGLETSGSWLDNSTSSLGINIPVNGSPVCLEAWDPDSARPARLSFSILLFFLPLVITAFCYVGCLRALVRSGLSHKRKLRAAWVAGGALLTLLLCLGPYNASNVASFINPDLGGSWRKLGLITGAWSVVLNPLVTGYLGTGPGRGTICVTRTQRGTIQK
T1 sequence (P32121 whole entry partner): as the sequence (P32121 whole entry partner) above

Take `CC#C[C@@H](CC(=O)O)c1ccc(OCc2cc(-c3ccccc3C)cn3ncnc23)cc1` [Example 1, (S)-3-[4-(6-o-Tolyl-[1,2,4]triazolo[1,5-a]pyridin-8-ylmethoxy)-phenyl]-hex-4-ynoic acid]: the EC50 in experiment [1] (1% FBS, 90 min, read-out: mGPR40 b-arrestin EC50) worked out at 0.00402 µM; in experiment [3] it was 0.146 µM; in experiment [4] (1% FBS, 90 min, read-out: hGPR40 b-arrestin EC50), 0.0474 µM. In addition, in experiment [1] (setting [5]), the “mGPR40 b-arrestin % stimulation max (FA)” value worked out at 160%. Further, in experiment [2] (30 and 60 minute time points, Example 1 at 10, 30, 100 mg/kg oral, positive control 10 mg/kg), the “Glucose levels compared to vehicle control” value is listed as “significantly lowered”. For the same compound, the ED50 in experiment [2] (Mus musculus, oral, 60 min before glucose 2 g/kg i.p., read-out: ED50 based on AUCs for glucose lowering) came out at 7.9 mg/kg. For the same compound, in experiment [4] (setting [5]), the “hGPR40 b-arrestin % stimulation max (FA)” value stood at 163%.
